In patent publication US7812170B2, “Insecticides” (Syngenta Crop Protection, Inc., priority 2004, dated 2010):

Legend:
Assay type in all cases: in vivo
[1] = system: Heliothis virescens; experiment: Activity against Heliothis virescens (foliar application); conditions: 144 h, 400 ppm active ingredient, sprayed young soya plants, 1st instar caterpillars, 6 days, read-out: percentage reduction in the population and in the feeding damage (% activity)
Description: Activity Against Heliothis virescens (Foliar Application) Young soya plants are sprayed with an aqueous emulsion spray mixture comprising 400 ppm of active ingredient and, after the spray coating has dried on, populated with 10 caterpillars (1st instar) of Heliothis virescens and introduced into a plastic container. 6 days later, the percentage reduction in the population and in the feeding damage (% activity) are determined by comparing the number of dead caterpillars and the feeding damage between the treated and untreated plants.

[2] = system: Plutella xylostella; experiment: Activity against Plutella xylostella (sprayed cabbage plants); conditions: 72 h, 400 ppm active ingredient, sprayed young cabbage plants, 3rd instar caterpillars, 3 days, read-out: percentage reduction in the population and in the feeding damage (% activity)
Description: Activity Against Plutella xylostella Young cabbage plants are sprayed with an aqueous emulsion spray mixture comprising 400 ppm of active ingredient and, after the spray coating has dried on, populated with 10 caterpillars (3rd instar) of Plutella xylostella and introduced into a plastic container. 3 days later, the percentage reduction in the population and in the feeding damage (% activity) are determined by comparing the number of dead caterpillars and the feeding damage between the treated and untreated plants.

[3] = system: Spodoptera littoralis; experiment: Activity against Spodoptera littoralis (sprayed soya plants); conditions: 72 h, 400 ppm active ingredient, sprayed young soya plants, 1st instar caterpillars, 3 days, read-out: percentage reduction in the population and in the feeding damage (% activity)
Description: Activity Against Spodoptera littoralis Young soya plants are sprayed with an aqueous emulsion spray mixture comprising 400 ppm of active ingredient and, after the spray coating has dried on, populated with 10 caterpillars (1st instar) of Spodoptera littoralis and introduced into a plastic container. 3 days later, the percentage reduction in the population and in the feeding damage (% activity) are determined by comparing the number of dead caterpillars and the feeding damage between the treated and untreated plants.

[4] = system: Diabrotica balteata; experiment: Activity against Diabrotica balteata (sprayed maize seedlings); conditions: 144 h, 400 ppm active ingredient, 2nd instar larvae, 6 days, read-out: percentage reduction in the population (% activity)
Description: Activity Against Diabrotica balteata Maize seedlings are sprayed with an aqueous emulsion spray mixture comprising 400 ppm of active ingredient and, after the spray coating has dried on, populated with 10 larvae (2nd instar) of Diabrotica balteata and introduced into a plastic container. 6 days later, the percentage reduction in the population (% activity) is determined by comparing the number of dead larvae between the treated and untreated plants.

[5] = system: Myzus persicae; experiment: Activity against Myzus persicae (foliar application); conditions: 400 ppm active ingredient, spray on infected pea seedlings, 20°, 3 and 6 days, read-out: percentage reduction in the population (% activity)
Description: Activity Against Myzus persicae (Foliar Application) Pea seedlings are infected with Myzus persicae, subsequently sprayed with a spray mixture comprising 400 ppm of active ingredient and then incubated at 20°. 3 and 6 days later, the percentage reduction in the population (% activity) is determined by comparing the number of dead aphids between the treated and untreated plants.

Measured: inhibition at 400 ppm

CC(C)NC(=O)c1cc2ccccc2c(Br)c1NC(=O)c1cc(C(F)(F)F)nn1-c1ncccc1Cl [Compound T7.3]
not listed: [5]
> 80%: all other assays above

CNC(=O)c1cc2ccccc2c(Cl)c1NC(=O)c1cc(C(F)(F)F)nn1-c1ncccc1Cl [Compound T1.1]
> 80%: all assays above

CC(C)NC(=O)c1cc2c([N+](=O)[O-])cccc2c(Cl)c1NC(=O)c1cc(C(F)(F)F)nn1-c1ncccc1Cl [Compound T76.3]
> 80%: [1] | [2] | [3]

CNC(=O)c1cc2cc(Br)ccc2c(Cl)c1NC(=O)c1cc(C(F)(F)F)nn1-c1ncccc1Cl [Compound T2.1]
> 80%: [1] | [2] | [3]

CNC(=O)c1cc2ccccc2c(Br)c1NC(=O)c1cc(C(F)(F)F)nn1-c1ncccc1Cl [Compound T7.1]
> 80%: all assays above

CNC(=O)c1cc2cc(Cl)ccc2c(Cl)c1NC(=O)c1cc(C(F)(F)F)nn1-c1ncccc1Cl [Compound T20.1]
> 80%: [1] | [2] | [3]

CNC(=O)c1cc2ccccc2c(C)c1NC(=O)c1cc(C(F)(F)F)nn1-c1ncccc1Cl [Compound T8.1]
> 80%: [1] | [2] | [3]

CC(C)NC(=O)c1cc2cc(C#N)ccc2c(Cl)c1NC(=O)c1cc(C(F)(F)F)nn1-c1ncccc1Cl [Compound T5.3]
> 80%: [1] | [2] | [3]

CC(C)NC(=O)c1cc2ccccc2c(Cl)c1NC(=O)c1cc(C(F)(F)F)nn1-c1ncccc1Cl [Compound T1.3]
not listed: [5]
> 80%: all other assays above

CNC(=O)c1cc2cc(Br)ccc2c(Br)c1NC(=O)c1cc(C(F)(F)F)nn1-c1ncccc1Cl [Compound T9.1]
> 80%: [1] | [2] | [3]
